IC50 data for five compounds are collected here from ChEMBL document CHEMBL1148150, “New cytotoxic furanosesterterpenes from an Okinawan marine sponge, Ircinia sp” (J Nat Prod, 2003).

For orientation: IC50 means the point on the concentration scale where inhibition reaches its midpoint.

This experiment concerns KB. Description: Cytotoxicity against human KB cells. The class given is functional, cell-based.
For the compound `CCC(O)C(=O)C[C@@H](C)CCC/C(C)=C\C=C\[C@]1(C)CCCc2ccoc21` (stereo not given in full), the 50% inhibitory concentration (IC50) was under 1 µg/mL. The figure for `C/C(=C/C=C/[C@]1(C)CCCc2ccoc21)CCC[C@H](C)CC(=O)[C@@H](O)[C@H](C)Cl` is under 1 µg/mL. The same measure for `CC1=C(O)/C(=C/[C@@H](C)CCC/C(C)=C/C=C/[C@]2(C)CCCc3ccoc32)OC1=O`: at least 1 µg/mL; for `CC1=C(O)/C(=C/[C@@H](C)CCC/C(C)=C\C=C\[C@]2(C)CCCc3ccoc32)OC1=O`: at least 1 µg/mL.

For the compound `C/C(=C/C=C/[C@]1(C)CCCc2ccoc21)CCC[C@H](C)CC(=O)[C@H](O)[C@H](C)Cl`, the IC50 is under 1 µg/mL.
